Reference: US12076304B2, “Compositions comprising 15-HEPE and methods of treating or preventing hematologic disorders, and/or related diseases” (priority 2020, dated 2024)
“Also recorded” adds a separate entry of the source.

Legend:
Assay type in all cases: in vivo
[1] = tested on: UUO mice; experiment: UUO mice: body weight, kidney weight, general condition; conditions: n = 8
Experimental: UUO Surgery: On day 0 of the study, UUO surgery was performed on mice under pentobarbital sodium anesthesia. The mouse's hair was first shaved and then abdomen cut open to exteriorize the mouse's left ureter. The ureter was ligated 4-0 nylon sutures at two points. The mouse's peritoneum and skin were then closed with sutures, and the mouse transferred to a clean cage until recovered from the anesthesia. Sham operated mice had their left ureter exposed but not ligated. […]
Animals: Seven-week-old female C57BL/6 mice (i.e., animals) were obtained from Japan SLC, Inc. (Japan) and were housed and fed with a normal diet (CE-2; CLEA Japan, Japan) under controlled conditions. The animals were maintained in a specific-pathogen free (SPF) facility under controlled conditions of temperature (e.g., 23±2° C.), humidity (e.g., 45±10%), lighting (e.g., 12-hour artificial light and dark cycles; light from 8:00 to 20:00) and air exchange. A high pressure was maintained in the experimental room to prevent contamination of the facility. The animals were housed in TPX cages (CLEA Japan) with a maximum of 4 mice per cage. Sterilized Paper-Clean (Japan SLC) was used for bedding and replaced once a week. Sterilized solid normal diet was provided ad libitum, being placed in a metal lid on the top of the cage. Pure water was also provided ad libitum from a water bottle equipped with a rubber stopper and a sipper tube. Water bottles were replaced once a week, cleaned, and sterilized in an autoclave and reused. Mice were identified by ear punch and each cage was labeled with a specific identification code.
Animal Monitoring and Sacrifice: The viability, clinical signs and behavior for the mice were monitored daily. Individual body weight was measured daily before treatment during the treatment period. […] The animals were sacrificed by exsanguination through direct cardiac puncture under isoflurane anesthesia (Pfizer Inc.) at Day 14.

[2] = tested on: UUO-induced renal interstitial fibrosis; experiment: UUO mice: kidney hydroxyproline content; conditions: for Kidney hydroxyproline: n = 8
Experimental: Measurement of Kidney Biochemistry: To quantify kidney hydroxyproline content, frozen left kidney samples were processed by an alkaline-acid hydrolysis method as follows: kidney samples were dissolved in 2 normal (N) sodium hydroxide (NaOH) at 65° C. and autoclaved at 121° C. for 20 minutes. The lysed samples (400 μL) were acid-hydrolyzed with 400 μL of 6N hydrochloride acid (HCl) at 121° C. for 20 minutes, and neutralized with 400 μL of 4N NaOH containing 10 mg/mL of activated carbon. An AC buffer (e.g., 2.2M acetic acid/0.48M citric acid, 400 μL) was added to the samples, followed by centrifugation to collect the supernatant. A standard curve of hydroxyproline was constructed with serial dilutions of trans-4-hydroxy-L-proline (Sigma-Aldrich, USA) starting at 16 μg/mL. The prepared samples and standards (e.g., each 400 μL) were mixed with 400 μL chloramine T solution (Wako Pure Chemical Industries, Japan) and incubated for 25 minutes at room temperature. The samples were then mixed with Ehrlich's solution (e.g., 400 μL) and heated at 65° C. for 20 minutes to develop the color. After samples were cooled on ice and centrifuged to remove precipitates, the optical density of each supernatant was measured at 560 nanometers (nm). The concentrations of hydroxyproline were calculated from the hydroxyproline standard curve. Protein concentrations of kidney samples were determined using a bicinchoninic (BCA) protein assay kit (Thermo Fisher Scientific, USA) and used to normalize the calculated hydroxyproline values. Kidney hydroxyproline contents were expressed as microgram (μg) per mg protein.
Sample Collection: For serum samples, non-fasting blood was collected in serum separate tubes without anticoagulant through direct cardiac puncture and centrifuged at 3,500×g for 4 minutes at 4° C. The supernatant was collected and stored at −80° C. for shipping. For kidney samples, the left kidney was collected and cut into 2 pieces horizontally. […] Paraffin blocks were stored at room temperature for histological analyses. […] The anterior part of left kidney was snap frozen in liquid nitrogen and stored at −80° C. for gene expression assay. The posterior part of left kidney was snap frozen in liquid nitrogen and stored at −80° C. for kidney biochemistry.

[3] = tested on: UUO-induced renal interstitial fibrosis; experiment: UUO mice: Sirius red staining of kidney sections, fibrosis area; conditions: for Sirius red-positive area / Sirius red-positive area (%) _Median: UUO mice kidney, Day 14, n = 8; for Sirius red-positive area: mean ± SD; for fibrosis area compared with the Vehicle group: UUO mice
Experimental: Histopathological analysis: To visualize collagen deposition, kidney sections were stained using picro-Sirius red solution (Waldeck, Germany). For quantification of interstitial fibrosis area, bright field images in the corticomedullary region were captured using a digital camera (e.g., DFC295; Leica Microsystems, Germany) at 200-fold magnification, and the positive areas in 5 fields/section were measured using ImageJ software (National Institute of Health, USA).

[4] = tested on: Alpha-SMA mRNA; experiment: UUO mice kidney quantitative RT-PCR, Alpha-SMA
Experimental: (§1) Quantitative RT-PCR: Total ribonucleic acid (RNA) was extracted from kidney samples using RNAiso (Takara Bio, Japan) according to the manufacturer's instructions. One μg of RNA was reverse-transcribed using a reaction mixture containing […] (mM) of magnesium chloride (MgCl2) (F. Hoffmann-La Roche, Switzerland), 40 U RNase inhibitor (Toyobo, Japan), 0.5 mM dNTP (Promega, USA), 6.28 μM random hexamer (Promega), 5× first strand buffer (Promega), 10 mM dithiothreitol (Invitrogen, USA) and 200 U MMLV-RT (Invitrogen) in a final volume of 20 μL. The reaction was carried out for 1 hour at 37° C., followed by 5 minutes at 99° C. Real-time PCR was performed using real-time PCR DICE and TB Green™ Premix Ex Taq™ II (Takara Bio). To calculate the relative […] (mRNA) expression level, the expression of each gene (e.g., α-SMA, TIMP-1, TGF-β and Collagen Type 1) was normalized to that of reference gene 36B4 (gene symbol: Rplp0). Information regarding the PCR-primer sets and the plate layout are described in Tables 1 and 2.

[5] = tested on: TIMP-1 mRNA; experiment: UUO mice kidney quantitative RT-PCR, TIMP-1
Experimental: as §1

[6] = tested on: Collagen Type 1 mRNA; experiment: UUO mice kidney quantitative RT-PCR, Collagen Type 1
Experimental: as §1

[7] = 5 mg/kg PO QD Day 0-13, Day 14, mean ± SD
[8] = 50 mg/kg PO QD Day 0-13, Day 14, mean ± SD
[9] = 250 mg/kg PO QD Day 0-13, Day 14, mean ± SD
[10] = 50 mg/kg PO QD Day 0-13, Mann-Whitney U test, trend p<0.1, 50 mg/kg
[11] = 5 mg/kg PO QD Day 0-13, normalized to 36B4, Sham 1.00, mean ± SD
[12] = 50 mg/kg PO QD Day 0-13, normalized to 36B4, Sham 1.00, mean ± SD
[13] = 250 mg/kg PO QD Day 0-13, normalized to 36B4, Sham 1.00, mean ± SD
[14] = 500 mg/kg PO QD Day 0-13, Day 14, mean ± SD
[15] = 500 mg/kg PO QD Day 0-13, normalized to 36B4, Sham 1.00, mean ± SD

Compound: CCCCCC(O)/C=C/C=C\C/C=C\CCCCCCC(=O)O (stereo not drawn) [DS109, 15-HETrE]
- Body Weight [1, 7]: 19.1 ± 0.9 g
- Left Kidney Weight [1, 7]: 533 ± 138 mg
- Left Kidney-to-Body Weight Ratio [1, 7]: 2.79 ± 0.65%
- Right Kidney Weight [1, 7]: 137 ± 7 mg
- Right Kidney-to-Body Weight Ratio [1, 7]: 0.71 ± 0.04%
- Body Weight [1, 8]: 18.6 ± 0.6 g
- Left Kidney Weight [1, 8]: 523 ± 91 mg
- Left Kidney-to-Body Weight Ratio [1, 8]: 2.83 ± 0.50%
- Right Kidney Weight [1, 8]: 135 ± 6 mg
- Right Kidney-to-Body Weight Ratio [1, 8]: 0.73 ± 0.05%
- Body Weight [1, 9]: 18.6 ± 0.7 g
- Left Kidney Weight [1, 9]: 425 ± 105 mg
- Left Kidney-to-Body Weight Ratio [1, 9]: 2.26 ± 0.53%
- Right Kidney Weight [1, 9]: 130 ± 13 mg
- Right Kidney-to-Body Weight Ratio [1, 9]: 0.70 ± 0.05%
- Kidney hydroxyproline [2, 7]: 9.94 ± 2.02 μg/mg total protein
- kidney hydroxyproline contents compared with the Vehicle group ([2]; 5 mg/kg PO QD Day 0-13, significance p<0.05): significant decreases
- Kidney hydroxyproline [2, 8]: 13.94 ± 6.44 μg/mg total protein
- kidney hydroxyproline contents compared with the Vehicle group ([2]; 50 mg/kg PO QD Day 0-13, significance p<0.05): no significant difference
- Kidney hydroxyproline [2, 9]: 8.30 ± 1.04 μg/mg total protein
- kidney hydroxyproline contents compared with the Vehicle group ([2]; 250 mg/kg PO QD Day 0-13, significance p<0.05): significant decreases
- Sirius red-positive area ([3]; 5 mg/kg PO QD Day 0-13): 4.23 ± 1.90%
- Sirius red-positive area (%) _Median ([3]; 5 mg/kg PO QD Day 0-13): 3.22 ± 1.47%
- Sirius red-positive area ([3]; 50 mg/kg PO QD Day 0-13): 3.58 ± 1.04%
- Sirius red-positive area (%) _Median ([3]; 50 mg/kg PO QD Day 0-13): 3.28 ± 1.41%
- Sirius red-positive area ([3]; 250 mg/kg PO QD Day 0-13): 4.71 ± 0.96%
- Sirius red-positive area (%) _Median ([3]; 250 mg/kg PO QD Day 0-13): 3.76 ± 0.81%
- fibrosis area compared with the Vehicle group ([3]; 5 mg/kg PO QD Day 0-13, Mann-Whitney U test, trend p<0.1, 5 mg/kg): tended to decrease; also recorded: reduction trend
- fibrosis area compared with the Vehicle group ([3]; 50 mg/kg PO QD Day 0-13, Bonferroni Multiple Comparison): tended to decrease
- fibrosis area compared with the Vehicle group [3, 10]: tended to decrease; also recorded: reduction trend
- fibrosis area compared with the Vehicle group ([3]; 250 mg/kg PO QD Day 0-13, Mann-Whitney U test, trend p<0.1, 250 mg/kg): tended to decrease; also recorded: reduction trend
- Alpha-SMA relative mRNA expression level [4, 11]: 3.87 ± 0.82
- Alpha-SMA relative mRNA expression level [4, 12]: 4.61 ± 3.15
- Alpha-SMA relative mRNA expression level [4, 13]: 4.85 ± 1.22
- TIMP-1 relative mRNA expression level [5, 11]: 153.60 ± 37.12
- TIMP-1 relative mRNA expression level [5, 12]: 167.70 ± 122.60
- TIMP-1 relative mRNA expression level [5, 13]: 180.90 ± 23.12
- Collagen Type 1 relative mRNA expression level [6, 11]: 10.76 ± 1.45
- Collagen Type 1 relative mRNA expression level [6, 12]: 15.23 ± 11.52
- Collagen Type 1 relative mRNA expression level [6, 13]: 13.88 ± 1.91

Compound: 15-HEPE [DS102]
- Left Kidney Weight [1, 8]: 469 ± 60 mg
- Right Kidney Weight [1, 8]: 133 ± 10 mg
- Left Kidney Weight [1, 14]: 487 ± 108 mg
- Right Kidney Weight [1, 14]: 136 ± 6 mg
- Kidney hydroxyproline [2, 8]: 8.47 ± 2.08 μg/mg total protein
- kidney hydroxyproline contents compared with the Vehicle group ([2]; 50 mg/kg PO QD Day 0-13, significance p<0.05, 50 mg/kg): significant decrease
- Kidney hydroxyproline [2, 14]: 8.59 ± 1.99 μg/mg total protein
- kidney hydroxyproline contents compared with the Vehicle group ([2]; 500 mg/kg PO QD Day 0-13, significance p<0.05): significant decreases
- Sirius red-positive area ([3]; 50 mg/kg PO QD Day 0-13): 5.01 ± 3.11%
- Sirius red-positive area (%) _Median ([3]; 50 mg/kg PO QD Day 0-13): 4.19 ± 3.33%
- Sirius red-positive area ([3]; 500 mg/kg PO QD Day 0-13): 4.01 ± 1.92%
- Sirius red-positive area (%) _Median ([3]; 500 mg/kg PO QD Day 0-13): 3.08 ± 1.16%
- fibrosis area compared with the Vehicle group [3, 10]: tended to decrease; also recorded: reduction trend
- fibrosis area compared with the Vehicle group ([3]; 500 mg/kg PO QD Day 0-13, Mann-Whitney U test, trend p<0.1, 500 mg/kg): tended to decrease; also recorded: reduction trend
- Alpha-SMA relative mRNA expression level [4, 12]: 3.74 ± 0.81
- Alpha-SMA relative mRNA expression level [4, 15]: 5.54 ± 1.54
- TIMP-1 relative mRNA expression level [5, 12]: 138.30 ± 30.39
- TIMP-1 relative mRNA expression level [5, 15]: 124.80 ± 28.60
- Collagen Type 1 relative mRNA expression level [6, 12]: 11.80 ± 1.78
- Collagen Type 1 relative mRNA expression level [6, 15]: 14.09 ± 2.88
